Data as given in US20090137546A1, “Anti-Hypercholesterolemic Compounds” (priority 2005, published 2009).

System: cholesterol absorption
Assay: Cholesterol Absorption Assay in Mice
Assay type: in vivo, C57BL/6 male mice
Settings: highest dose tested (oral, 0.12-10 mg/kg range); [3H]-cholesterol counts in liver and plasma, 5 h after cholesterol dose
Protocol: Compounds of this invention were determined to inhibit cholesterol absorption employing the Cholesterol Absorption Assay in Mice, below. This assay involves comparing a test compound to ezetimibe with respect to their ability to inhibit cholesterol absorption in mice.
Cholesterol Absorption Assay in Mice: C57BL/6 male mice (n=6/group), aged 10-14 weeks, were dosed orally with 0.2 ml 0.25% methyl cellulose solution with or without test compound or ezetimibe (0.12-10 mg/kg). Thirty minutes later all of the mice were dosed orally with 0.2 ml […]™ containing 2 μCi [^3H]-cholesterol per mouse. Five hours later, the animals were euthanized, and liver and blood were collected. Cholesterol counts in liver and plasma were determined, and percent inhibition of cholesterol absorption was calculated.

O=C1[C@H](CC[C@H](O)c2ccc(F)cc2)[C@@H](c2ccc(O)cc2)N1c1ccc(F)cc1 [ezetimibe]
inhibition of cholesterol absorption: > 90%
